The inhibition is the percentage by which the read-out fell short of the control. A high value points to a response far below the control.

Data set [1] deals with spontaneous periostin secretion. Briefly: Inhibition of spontaneous periostin secretion in human 3D airway cultures from asthmatic donors. The settings on record: 192 h, 8 days, 3 or 4 donors. It is filed as cell-based. On the procedure:
EpiAirway tissue cultures were obtained from Mattek (AIR-100). Cells were derived from asthmatic donors that spontaneously secrete periostin, a matricellular protein associated with Th2 mediated asthma (eosinophilic), and interleukin-6 (IL-6), an inflammatory cytokine that plays a role in both Th2 and non-Th2 related asthma. In a cell culture insert, human derived tracheal/bronchial epithelial cells were grown and differentiated on a porous membrane support, allowing an air-liquid interface with warmed culture medium below the cells and a gaseous test atmosphere above. Tissues were cultured in maintenance media ([…]) in a 37° C., 5% CO2 humidified incubator. Four donors were tested. On Day 0, tissue cultures were treated with test compounds in liquid interface at 10 μM, 1 μM and/or 0.1 μM. Compounds were diluted in dimethyl sulfoxide (DMSO, Sigma) to a final concentration of 0.1%. DMSO at 0.1% was used as a vehicle control. Tissue cultures were maintained for 8 days. Media was replaced every 2 days with fresh media containing compounds. On Day 8, supernatants were collected for analysis. […] Data is expressed as % Inhibition+/-standard deviation (±STDV). Percent inhibition was determined by compound inhibitory potency against spontaneous secretion of periostin and IL-6 compared to vehicle treated cells. […]

In data set [2] the test system is IL-27 induced CXCL10 secretion. Briefly: Inhibition of IL-27 induced CXCL10 in human 3D airway cultures. It is filed as cell-based. The settings on record: 192 h, 8 days, 4 donors. How it is done: EpiAirway tissue cultures were obtained from Mattek (AIR-100). Cultures were derived from asthmatic donors. In a cell culture insert, human derived tracheal/bronchial epithelial cells were grown and differentiated on a porous membrane support, allowing an air-liquid interface with warmed culture medium below the cells and a gaseous test atmosphere above. Tissues were cultured in maintenance media ([…]) in a 37° C., 5% CO2 humidified incubator. Four donors were tested. On Day 0, tissue cultures were treated with test compounds in liquid interface at 10 μM, 1 μM and/or 0.1 μM. Compounds were diluted in dimethyl sulfoxide (DMSO, Sigma) to a final concentration of 0.1%. DMSO at 0.1% was used as a vehicle control. […] Tissue cultures were maintained for 8 days. Media was replaced every 2 days with fresh media containing compounds and IFNγ or IL-27. On Day 8, tissue cultures and supernatants were collected for analysis. Supernatant samples were assayed for CXCL10 (IP-10) and CXCL9 (MIG) using luminex analysis (EMD Millipore). Data is expressed as % Inhibition+/-standard deviation (±STDV). Percent inhibition was determined by compound inhibitory potency against IFNγ or IL-27 induced CXCL10 or CXCL9 secretion compared to vehicle treated cells. Data is the average from 4 donors.

Data set [3] can be described thus: Pharmacokinetics in plasma and lung in mouse. It is filed as in vivo. The settings on record: single oral aspiration, 0.2 mg/mL, 50 μL. On the procedure: Plasma and lung concentrations of test compounds and ratios thereof were determined in the following manner. BALB/c mice from Charles River Laboratories were used in the assay. Test compounds were individually formulated in 20% propylene glycol in pH 4 citrate buffer at a concentration of 0.2 mg/mL and 50 μL of the dosing solution was introduced into the trachea of a mouse by oral aspiration. At various time points (typically 0.167, 2, 6, 24 hr) post dosing, blood samples were removed via cardiac puncture and intact lungs were excised from the mice.

Data set [4] in a line: Lung and plasma drug concentration in the IL-13 pSTAT6 mouse model. It is filed as in vivo. The settings on record: lung to plasma ratio at 5 hours. On the procedure: Adult Balb/c mice from Harlan were used in the assay. […] Animals were placed in lateral recumbency post dose and monitored for full recovery from anesthesia before being returned to their home cage. Four hours later, animals were once again briefly anesthetized and challenged with either vehicle or IL-13 (0.03 μg total dose delivered, 50 μL total volume) via oral aspiration before being monitored for recovery from anesthesia and returned to their home cage. One hour after vehicle or IL-13 administration, whole blood and lungs were collected for both pSTAT6 detection in lung homogenates using a Perkin Elmer AlphaLISA® SureFire® Ultra™ HV p-STAT6 (Tyr641) assay kit and for total drug concentration analysis in both lung and plasma. Blood samples were centrifuged (Eppendorf centrifuge, 5804R) for 4 minutes at approximately 12,000 rpm at 4° C. to collect plasma. […] Plasma and lung levels of test compound were determined by LC-MS analysis against analytical standards constructed into a standard curve in the test matrix. A lung to plasma ratio was determined as the ratio of the lung concentration in ng/g to the plasma concentration in ng/mL at 5 hours.

Turning to `CCc1cc(O)ccc1-c1ccc2c(-c3nc4c([nH]3)CN(C(C)C)[C@H](C(=O)N3CC(N(C)C)C3)C4)n[nH]c2c1` [Compound 1, (S)-(3-(dimethylamino)azetidin-1-yl)(2-(6-(2-ethyl-4-hydroxyphenyl)-1H-indazol-3-yl)-5-isopropyl-4,5,6,7-tetrahydro-3H-imidazo[4,5-c]pyridin-6-yl)methanone], the inhibition at 1 µM in data set [1] (1 μM) was 40%; in data set [2] (1 μM), 98%. Further, the inhibition at 10 µM in data set [1] (10 μM) came out at 62%; in data set [2] (10 μM) it was 100%. Further, the inhibition at 0.1 µM in data set [2] (0.1 μM) amounted to 25%. Besides, the AUC(0-t) in data set [3] (BALB/c, in vivo, 10 µg/animal, read-out: Plasma AUC(0-24)) was 943 ng·h/mL. The “Lung Tissue AUC(0-24)” value in data set [3] was found to be 54.5 µg·h/g. Besides, in data set [4], the “exposure in lung versus plasma (in words)” value is listed as “significantly more exposure in the lung than exposure in plasma”.

(Values after patent publication US10947229B2, “Dimethyl amino azetidine amides as JAK inhibitors” (THERAVANCE BIOPHARMA R&D IP, LLC, priority 2018, dated 2021).)
